Measured values as given in the NIST ThermoML archive (doi:10.1016/j.tca.2004.11.034).

Key:
[1] = 101.33 kPa, Liquid; for speed of sound: Anton Paar DSA 48; for mass density: Vibrating tube method
[2] = xn = mol fraction of the nth substance listed; conditions: 101.33 kPa, Liquid; for speed of sound: Anton Paar DSA 48; for mass density: Vibrating tube method
[3] = excess molar enthalpy (molar enthalpy of mixing); xn = mol fraction of the nth substance listed; conditions: 298.15 K, 101.33 kPa, Liquid, Flow calorimetry

CC(C)CCl [1-chloro-2-methylpropane]
[1]
Conditions | mass density [kg/m3] | speed of sound [m/s]
298.15 K | 870.89 | 1079.2
313.15 K | 853.56 | –
333.15 K | – | 1016.3

CCC(C)Cl (stereo not drawn) [2-chlorobutane] + CC1CCCO1
[2]
Conditions | mass density, 298.15 K [kg/m3] | mass density, 313.15 K [kg/m3] | speed of sound, 298.15 K [m/s] | speed of sound, 313.15 K [m/s]
x2 = 0.049 | 866.71 | – | 1073.2 | –
x2 = 0.0565 | – | 849.52 | – | 1013.7
x2 = 0.1006 | 866.01 | – | 1080.1 | –
x2 = 0.101 | – | 848.97 | – | 1019.3
x2 = 0.201 | – | 847.69 | – | 1031.9
x2 = 0.2041 | 864.52 | – | 1093.8 | –
x2 = 0.3034 | 862.99 | – | 1107.1 | –
x2 = 0.3045 | – | 846.28 | – | 1045.1
x2 = 0.4039 | – | 844.81 | – | 1057.9
x2 = 0.4055 | 861.31 | – | 1120.8 | –
x2 = 0.5026 | 859.61 | – | 1134 | –
x2 = 0.5074 | – | 843.19 | – | 1071.3
x2 = 0.6005 | 857.81 | – | 1147.3 | –
x2 = 0.6044 | – | 841.58 | – | 1083.9
x2 = 0.6989 | 855.91 | – | 1160.9 | –
x2 = 0.7042 | – | 839.79 | – | 1097
x2 = 0.8022 | 853.81 | – | 1175.2 | –
x2 = 0.8034 | – | 837.9 | – | 1110
x2 = 0.8988 | – | 835.97 | – | 1122.6
x2 = 0.8991 | 851.69 | – | 1188.7 | –
x2 = 0.9456 | – | 835.03 | – | 1128.8
x2 = 0.9472 | 850.55 | – | 1195.3 | –

[3]
Conditions | excess molar enthalpy [kcal/mol]
x2 = 0.057 | -0.00454
x2 = 0.104 | -0.01
x2 = 0.201 | -0.0198
x2 = 0.298 | -0.0277
x2 = 0.398 | -0.033
x2 = 0.497 | -0.0356
x2 = 0.597 | -0.0359
x2 = 0.696 | -0.0323
x2 = 0.799 | -0.0251
x2 = 0.901 | -0.0141
x2 = 0.954 | -0.00717

CC1CCCO1 (stereo not drawn) [2-methyltetrahydrofuran] + CCCCCl
[2]
Conditions | mass density, 298.15 K [kg/m3] | mass density, 313.15 K [kg/m3] | speed of sound, 298.15 K [m/s] | speed of sound, 313.15 K [m/s]
x1 = 0.0507 | – | 862.5 | – | 1061
x1 = 0.0535 | 879.23 | – | 1123.2 | –
x1 = 0.0972 | 878.04 | – | 1126.8 | –
x1 = 0.1022 | – | 861.16 | – | 1065
x1 = 0.1958 | 875.19 | – | 1134.9 | –
x1 = 0.2014 | – | 858.46 | – | 1072.6
x1 = 0.2975 | 872.17 | – | 1143.3 | –
x1 = 0.3019 | – | 855.6 | – | 1080.3
x1 = 0.4006 | 869.04 | – | 1151.9 | –
x1 = 0.4047 | – | 852.6 | – | 1088.5
x1 = 0.5017 | – | 849.72 | – | 1096.2
x1 = 0.5031 | 865.88 | – | 1160.5 | –
x1 = 0.6017 | 862.77 | – | 1168.8 | –
x1 = 0.6026 | – | 846.65 | – | 1104.3
x1 = 0.6986 | 859.63 | – | 1177 | –
x1 = 0.7017 | – | 843.55 | – | 1112.3
x1 = 0.7994 | – | 840.43 | – | 1120.2
x1 = 0.8009 | 856.27 | – | 1185.6 | –
x1 = 0.9005 | 852.87 | – | 1194.1 | –
x1 = 0.9009 | – | 837.13 | – | 1128.3
x1 = 0.9487 | – | 835.54 | – | 1132.2
x1 = 0.9489 | 851.15 | – | 1198.2 | –

[3]
Conditions | excess molar enthalpy [kcal/mol]
x1 = 0.057 | -0.00669
x1 = 0.104 | -0.0139
x1 = 0.201 | -0.0277
x1 = 0.298 | -0.038
x1 = 0.398 | -0.0466
x1 = 0.497 | -0.0502
x1 = 0.597 | -0.0495
x1 = 0.696 | -0.0449
x1 = 0.799 | -0.0351
x1 = 0.901 | -0.0203
x1 = 0.954 | -0.0103

CC(C)(C)Cl [2-chloro-2-methylpropane]
[1]
Conditions | mass density [kg/m3] | speed of sound [m/s]
298.15 K | 835.67 | 983.1
313.15 K | 818.43 | –
333.15 K | – | 920.3
